In patent US20230085307A1, “PYRIDAZINONE COMPOUND AND HERBICIDE” (NISSAN CHEMICAL CORPORATION, priority 2019, published 2023):

Key:
velvetleaf [1] = assay: Test Example 4: herbicidal effect by soil treatment (Table 19, symbol M); format: in vivo, velvetleaf (Abutilon theophrasti); conditions: amount of applied herbicide 320 g/ha
How it was run: (§1)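 In this soil treatment, the formulated compound reached the seeds only through the soil: seeds were buried about 1.5 cm deep in sterilized diluvial soil, then the diluted emulsion was sprayed over the surface. After three weeks at 25° C. to 30° C. in a greenhouse, effects were graded on criteria from an earlier test.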

green foxtail [2] = assay: Test Example 5: herbicidal effect by foliage application, plastic box (Table 20, symbol G); format: in vivo, green foxtail (Setaria viridis)
How it was run: (§2)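 Plants were sown into sterilized diluvial soil under about 1.5 cm cover and kept in a greenhouse at 25° C. to 30° C. Fourteen days on, foliage received an even spray of the diluted emulsion. Herbicidal or crop effect was judged three weeks afterwards.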

lambsquarters [3] = assay: Test Example 4: herbicidal effect by soil treatment (Table 19, symbol O); format: in vivo, lambsquarters (Chenopodium album); conditions: amount of applied herbicide 320 g/ha
How it was run: as §1

Chinese sprangletop = assay: Test Example 3: herbicidal effect by foliage application, Wagner pot (Table 18, symbol D); format: in vivo, chinese sprangletop (Leptochloa chinensis); conditions: 320 g/ha
How it was run: (§3)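 Plants were sown in alluvial soil held under 0.1–0.5 cm standing water and grown 14 days in a greenhouse at 25–30 °C. An emulsifiable formulation, water-diluted to the set dose, was then sprayed onto the foliage, and effects were scored three weeks later using previously defined criteria.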

green foxtail [4] = assay: Test Example 4: herbicidal effect by soil treatment (Table 19, symbol G); format: in vivo, green foxtail (Setaria viridis); conditions: amount of applied herbicide 320 g/ha
How it was run: as §1

barnyard grass [5] = assay: Test Example 3: herbicidal effect by foliage application, Wagner pot (Table 18, symbol H); format: in vivo, barnyard grass (Echinochloa crus-galli); conditions: 320 g/ha
How it was run: as §3

wild oat [6] = assay: Test Example 4: herbicidal effect by soil treatment (Table 19, symbol I); format: in vivo, wild oat (Avena fatua); conditions: amount of applied herbicide 320 g/ha
How it was run: as §1

persian speedwell [7] = assay: Test Example 4: herbicidal effect by soil treatment (Table 19, symbol R); format: in vivo, Persian speedwell (Veronica persica); conditions: amount of applied herbicide 320 g/ha
How it was run: as §1

southern crabgrass [8] = assay: Test Example 5: herbicidal effect by foliage application, plastic box (Table 20, symbol F); format: in vivo, southern crabgrass (Digitaria ciliaris)
How it was run: as §2

barnyard grass [9] = assay: Test Example 4: herbicidal effect by soil treatment (Table 19, symbol H); format: in vivo, barnyard grass (Echinochloa crus-galli); conditions: amount of applied herbicide 320 g/ha
How it was run: as §1

southern crabgrass [10] = assay: Test Example 4: herbicidal effect by soil treatment (Table 19, symbol F); format: in vivo, southern crabgrass (Digitaria ciliaris); conditions: amount of applied herbicide 320 g/ha
How it was run: as §1

redroot pigweed [11] = assay: Test Example 5: herbicidal effect by foliage application, plastic box (Table 20, symbol N); format: in vivo, redroot pigweed (Amaranthus retroflexus); conditions: amount of applied herbicide 320 g/ha; foliage application after 14-day growth; evaluated three weeks after application
How it was run: as §2

blackgrass [12] = assay: Test Example 4: herbicidal effect by soil treatment (Table 19, symbol J); format: in vivo, blackgrass (Alopecurus myosuroides); conditions: amount of applied herbicide 320 g/ha
How it was run: as §1

barnyard grass [13] = assay: Test Example 5: herbicidal effect by foliage application, plastic box (Table 20, symbol H); format: in vivo, barnyard grass (Echinochloa crus-galli)
How it was run: as §2

redroot pigweed [14] = assay: Test Example 4: herbicidal effect by soil treatment (Table 19, symbol N); format: in vivo, redroot pigweed (Amaranthus retroflexus); conditions: amount of applied herbicide 320 g/ha
How it was run: as §1

persian speedwell [15] = assay: Test Example 5: herbicidal effect by foliage application, plastic box (Table 20, symbol R); format: in vivo, Persian speedwell (Veronica persica)
How it was run: as §2

windgrass [16] = assay: Test Example 5: herbicidal effect by foliage application, plastic box (Table 20, symbol L); format: in vivo, windgrass (Apera spica-venti)
How it was run: as §2

wild oat [17] = assay: Test Example 5: herbicidal effect by foliage application, plastic box (Table 20, symbol I); format: in vivo, wild oat (Avena fatua)
How it was run: as §2

chickweed [18] = assay: Test Example 4: herbicidal effect by soil treatment (Table 19, symbol P); format: in vivo, common chickweed (Stellaria media); conditions: amount of applied herbicide 320 g/ha
How it was run: as §1

lambsquarters [19] = assay: Test Example 5: herbicidal effect by foliage application, plastic box (Table 20, symbol O); format: in vivo, lambsquarters (Chenopodium album)
How it was run: as §2

windgrass [20] = assay: Test Example 4: herbicidal effect by soil treatment (Table 19, symbol L); format: in vivo, windgrass (Apera spica-venti); conditions: amount of applied herbicide 320 g/ha
How it was run: as §1

velvetleaf [21] = assay: Test Example 5: herbicidal effect by foliage application, plastic box (Table 20, symbol M); format: in vivo, velvetleaf (Abutilon theophrasti)
How it was run: as §2

Italian ryegrass [22] = assay: Test Example 5: herbicidal effect by foliage application, plastic box (Table 20, symbol K); format: in vivo, Italian ryegrass (Lolium multiflorum)
How it was run: as §2

chickweed [23] = assay: Test Example 5: herbicidal effect by foliage application, plastic box (Table 20, symbol P); format: in vivo, common chickweed (Stellaria media); conditions: amount of applied herbicide 320 g/ha; foliage application after 14-day growth; evaluated three weeks after application
How it was run: as §2

rice flat sedge = assay: Test Example 3: herbicidal effect by foliage application, Wagner pot (Table 18, symbol E); format: in vivo, rice flat sedge (Cyperus iria); conditions: 320 g/ha
How it was run: as §3

blackgrass [24] = assay: Test Example 5: herbicidal effect by foliage application, plastic box (Table 20, symbol J); format: in vivo, blackgrass (Alopecurus myosuroides)
How it was run: as §2

Italian ryegrass [25] = assay: Test Example 4: herbicidal effect by soil treatment (Table 19, symbol K); format: in vivo, Italian ryegrass (Lolium multiflorum); conditions: amount of applied herbicide 320 g/ha
How it was run: as §1

Japanese bulrush = assay: Test Example 1: herbicidal activity, application before weed generation under submerged conditions (Table 16, symbol B); format: in vivo, Japanese bulrush (Schoenoplectus juncoides); conditions: amount of applied herbicide 320 g/ha
Excerpt: (§4) [Test Example 1] Herbicidal Activity Test by Application before Weed Generation under Submerged Conditions After alluvial soil was placed into 1/10000 are of Wagner pot, water was poured and mixed to form a submerged condition having a water depth of 4 cm. Seeds of late watergrass, Japanese bulrush, and oval-leafed pondweed were sowed in a mixed manner in the aforementioned pot, and then 2.5 leaf stage rice plant seedlings were transplanted thereto. On the day of sowing seeds, the emulsion agent of the compound of the present invention prepared according to Formulation Example 2 was diluted with water so as to achieve a predetermined herbicide amount, and the diluted emulsion agent was applied to the surface of the water. The pot was placed in a greenhouse at 25° C. to 30° C. for growth of the plants. Three weeks after the herbicide application, the effect of the herbicide on each plant was evaluated according to the following criteria. Evaluation Criteria 5: Herbicidal rate of 90% or more (almost completely withered) 4: Herbicidal rate of 70% or more and less than 90% 3: Herbicidal rate of 40% or more and less than 70% 2: Herbicidal rate of 20% or more and less than 40% 1: Herbicidal rate of 5% or more and less than 20% 0: Herbicidal rate of 5% or less (almost no effect)

late watergrass = assay: Test Example 1: herbicidal activity, application before weed generation under submerged conditions (Table 16, symbol A); format: in vivo, late watergrass (Echinochloa oryzicola); conditions: amount of applied herbicide 320 g/ha
Excerpt: as §4

[26] = amount of applied herbicide 320 g/ha, foliage application after 14-day growth, evaluated three weeks after application
[27] = foliage application, 320 g/ha, three weeks after application

## COc1cc(F)ccc1-c1sc2cc(Cl)c(Cl)cc2c1-c1c(O)c(C)nn(C)c1=O [5-051]
Velvetleaf [1]
  M: velvetleaf, herbicidal effect grade: 0 (Herbicidal rate of 5% or less (almost no effect))
Green foxtail [2]; [26]
  Herbicidal effect by foliage application, G: green foxtail: 4 (Herbicidal rate of 70% or more and less than 90%)
Lambsquarters [3]
  O: lambsquarters, herbicidal effect grade: 4 (Herbicidal rate of 70% or more and less than 90%)
Chinese sprangletop
  herbicidal effect on Chinese sprangletop (D): 3 (Herbicidal rate of 40% or more and less than 70%)
Green foxtail [4]
  G: green foxtail, herbicidal effect grade: 2 (Herbicidal rate of 20% or more and less than 40%)
Barnyard grass [5]
  herbicidal effect on barnyard grass (H): 4 (Herbicidal rate of 70% or more and less than 90%)
Wild oat [6]
  I: wild oat, herbicidal effect grade: 0 (Herbicidal rate of 5% or less (almost no effect))
Persian speedwell [7]
  R: persian speedwell, herbicidal effect grade: 0 (Herbicidal rate of 5% or less (almost no effect))
Southern crabgrass [8]; [26]
  Herbicidal effect by foliage application, F: southern crabgrass: 2 (Herbicidal rate of 20% or more and less than 40%)
Barnyard grass [9]
  H: barnyard grass, herbicidal effect grade: 0 (Herbicidal rate of 5% or less (almost no effect))
Southern crabgrass [10]
  F: southern crabgrass, herbicidal effect grade: 0 (Herbicidal rate of 5% or less (almost no effect))
Redroot pigweed [11]
  Herbicidal effect by foliage application, N: redroot pigweed: 3 (Herbicidal rate of 40% or more and less than 70%)
Blackgrass [12]
  J: blackgrass, herbicidal effect grade: 0 (Herbicidal rate of 5% or less (almost no effect))
Barnyard grass [13]; [26]
  Herbicidal effect by foliage application, H: barnyard grass: 3 (Herbicidal rate of 40% or more and less than 70%)
Redroot pigweed [14]
  N: redroot pigweed, herbicidal effect grade: 1 (Herbicidal rate of 5% or more and less than 20%)
Persian speedwell [15]; [26]
  Herbicidal effect by foliage application, R: persian speedwell: 3 (Herbicidal rate of 40% or more and less than 70%)
Windgrass [16]; [26]
  Herbicidal effect by foliage application, L: windgrass: 4 (Herbicidal rate of 70% or more and less than 90%)
Wild oat [17]; [26]
  Herbicidal effect by foliage application, I: wild oat: 0 (Herbicidal rate of 5% or less (almost no effect))
Chickweed [18]
  P: chickweed, herbicidal effect grade: 1 (Herbicidal rate of 5% or more and less than 20%)
Lambsquarters [19]; [26]
  Herbicidal effect by foliage application, O: lambsquarters: 3 (Herbicidal rate of 40% or more and less than 70%)
Windgrass [20]
  L: windgrass, herbicidal effect grade: 0 (Herbicidal rate of 5% or less (almost no effect))
Velvetleaf [21]; [26]
  Herbicidal effect by foliage application, M: velvetleaf: 5 (Herbicidal rate of 90% or more (almost completely withered))
Italian ryegrass [22]; [26]
  Herbicidal effect by foliage application, K: Italian ryegrass: 0 (Herbicidal rate of 5% or less (almost no effect))
Chickweed [23]
  Herbicidal effect by foliage application, P: chickweed: 5 (Herbicidal rate of 90% or more (almost completely withered))
Rice flat sedge
  herbicidal effect on rice flat sedge (E): 3 (Herbicidal rate of 40% or more and less than 70%)
Blackgrass [24]; [26]
  Herbicidal effect by foliage application, J: blackgrass: 5 (Herbicidal rate of 90% or more (almost completely withered))
Italian ryegrass [25]
  K: Italian ryegrass, herbicidal effect grade: 0 (Herbicidal rate of 5% or less (almost no effect))

## COc1cc2sc(-c3ccccc3OC)c(-c3c(O)c(C)nn(C)c3=O)c2cc1Cl [5-068]
Green foxtail [2]; [27]
  herbicidal effect on green foxtail (G): 3 (Herbicidal rate of 40% or more and less than 70%)
Japanese bulrush
  Herbicidal effect, B: Japanese bulrush: 5 (Herbicidal rate of 90% or more (almost completely withered))
Chinese sprangletop
  herbicidal effect on Chinese sprangletop (D): 0 (Herbicidal rate of 5% or less (almost no effect))
Barnyard grass [5]
  herbicidal effect on barnyard grass (H): 4 (Herbicidal rate of 70% or more and less than 90%)
Southern crabgrass [8]; [27]
  herbicidal effect on southern crabgrass (F): 1 (Herbicidal rate of 5% or more and less than 20%)
Barnyard grass [13]; [27]
  herbicidal effect on barnyard grass (H): 3 (Herbicidal rate of 40% or more and less than 70%)
Persian speedwell [15]; [27]
  herbicidal effect on persian speedwell (R): 2 (Herbicidal rate of 20% or more and less than 40%)
Windgrass [16]; [27]
  herbicidal effect on windgrass (L): 0 (Herbicidal rate of 5% or less (almost no effect))
Late watergrass
  Herbicidal effect, A: late watergrass: 0 (Herbicidal rate of 5% or less (almost no effect))
Wild oat [17]; [27]
  herbicidal effect on wild oat (I): 0 (Herbicidal rate of 5% or less (almost no effect))
Lambsquarters [19]; [27]
  herbicidal effect on lambsquarters (O): 3 (Herbicidal rate of 40% or more and less than 70%)
Velvetleaf [21]; [27]
  herbicidal effect on velvetleaf (M): 1 (Herbicidal rate of 5% or more and less than 20%)
Italian ryegrass [22]; [27]
  herbicidal effect on Italian ryegrass (K): 0 (Herbicidal rate of 5% or less (almost no effect))
Rice flat sedge
  herbicidal effect on rice flat sedge (E): 1 (Herbicidal rate of 5% or more and less than 20%)
Blackgrass [24]; [27]
  herbicidal effect on blackgrass (J): 0 (Herbicidal rate of 5% or less (almost no effect))
